From US20180221433A1, “ANGIOTENSINS IN MUSCULAR DYSTROPHY” (University of Iowa Research Foundation, priority 2013, published 2018)
Positions of bridges follow the written chain, without caps; N, C: chain ends. No end group written: not given here.

Legend:
Type in all cases: in vivo, mouse
[1] = system: Sgcd −/− mice; test: H&E and Masson's Trichrome stain of quadriceps muscle for fibrosis, Example 4; conditions: osmotic minipump 8 weeks, TXA127 500, Pancyte 50, TXA301 50 μg/kg/day, vs saline, FIG. 10
Description: (§1) A total of 32 Sgcd −/− mice were randomly assigned to one of four treatment groups (n=8 in each): a saline group (vehicle) a TXA127 group, a Pancyte group, and a TXA301 group. The doses of Angiotensin (1-7) peptides administered was 500 μg/kg/day for TXA127, 50 μg/kg/day for Pancyte, and 50 μg/kg/day for TXA301. Osmotic minipumps containing the treatments were implanted in mice at 28-35 weeks of age, and the angiotensin (1-7) peptides were infused for 8 weeks. For the last three weeks of treatment, the mice were put in cages with running wheels attached to calculate the amount of voluntary exercise performed by each animal. Total number of wheel revolutions (distance ran) were collected daily. At the end of 8 weeks of treatment, quadriceps muscles were harvested from the mice for histopathological and oxidative stress analyses.
An H&E stain was used to examine the dystrophic morphology of the quadriceps muscles of the mice.

[2] = system: Sgcd −/− mice; test: Voluntary running-wheel exercise in Sgcd −/− mice, Example 4; conditions: for amount of voluntary exercise performed (average running-wheel revolutions, weeks 6, 7 and 8) / amount of exercise performed (accumulated totals over the three week test period): osmotic minipump 8 weeks, vs saline; for amount of voluntary exercise performed (average running-wheel revolutions, weeks 6, 7 and 8): TXA127 500, Pancyte 50, TXA301 50 μg/kg/day, FIG. 8; for amount of exercise performed (accumulated totals over the three week test period): TXA127 500, TXA301 50 μg/kg/day, FIG. 9
Text: In this Example, Sarcoglycan delta deficient mice (Sgcd−/−), an established mouse model of Limb Girdle Muscular Dystrophy-2F (LGMD-2F), was used to examine the effects of angiotensin (1-7) peptides on the progression of functional impairment and fibrosis in sufferers of the disease.
as §1

[3] = system: Sgcd −/− mice; test: Oxidative stress by DHE stain of quadriceps muscle, Example 4; conditions: TXA127 500 μg/kg/day for 8 weeks, vs saline, FIG. 11
Description: as §1
Dihydroethidium (DHE) was used to examine the degree of oxidative stress in treated Sgcd−/− mice. […] For quantification of degree of fibrosis, an average of six-sections of skeletal quadriceps muscle were obtained from each mouse. An intensity of fluorescence for each mouse was quantified using NIH ImageJ software and normalized to a percentage of the average fluorescence intensity measured in saline-treated Sgcd−/− mice.

[4] = system: Sgcd −/− mice; test: Oxidative stress (superoxide) by dihydroethidium (DHE) fluorescence in skeletal muscle, Example 2; conditions: Ang-(1-7) 300 ng/kg/min for 8 weeks, vs untreated Sgcd −/−, FIG. 7
Description: (§2) Data were collected over 2-3 days, and 24 hour averages were calculated. Separate groups of control and Sgcd−/− mice were infused with Ang-(1-7) (300 ng/kg/min) for 8 weeks beginning at 3 weeks of age. Measurements were obtained in these mice using the same protocols as described above.
(§3) To assess skeletal muscle phenotypes, paraffin sections of skeletal muscle (quadriceps) were stained with Masson Trichrome to assess histopathology and fibrosis. Frozen sections of skeletal muscle were incubated with polyclonal anti-δ and anti-β sarcoglycan primary antibody, a nuclear stain, and Alexa Fluor 488. AT1R (Ang type 1 receptor) and Mas (Ang(1-7) receptor) were detected with rabbit anti-AT1R, and anti-Mas nuclear stains, and secondary antibody goat anti-rabbit IgG. Oxidative stress (O2.^−) was measured by dihydrocthidium (DHE) fluorescence.
(§4) Data in this example are presented as ±SE. Results were analyzed by ANOVA, and paired and unpaired t-tests as appropriate, significance was determined at p<0.05.

[5] = system: angiotensin type 1 receptors (AT1R); test: AT1R expression in skeletal muscle sections (Alexa Fluor 488 staining); conditions: Sgcd −/− mice, Ang-(1-7) 300 ng/kg/min for 8 weeks; vs untreated Sgcd −/−; FIG. 6
Description: as §2, §3

[6] = system: Sgcd −/− mice; test: Baroreflex sensitivity and cardiac/vasomotor autonomic tone in Sgcd −/− mice; conditions: Ang-(1-7) 300 ng/kg/min for 8 weeks
Description: (§5) To examine the effects of angiotensin (1-7) peptides on disruption of normal motor activity in Sgcd −/− mice, conscious, young (10-15 wks) Sgcd−/− and control C57BL6 mice were analyzed by radio-telemetry. Radio-telemeters were implanted into the aorta via the left carotid artery under ketamine-xylazine anesthesia when mice were 10 weeks of age. Following recovery, blood pressure, heart rate and locomotor activity were measured 24 hours/day. Blood pressure measurements were sampled at 2000 Hz for 1 hour periods to enable beat-to-beat measurements of systolic arterial pressure and pulse interval (PI). Baroreflex control of heart rate was assessed from spontaneous fluctuations in systolic blood pressure and pulse interval using known sequence techniques.
Baroreflex sensitivity was calculated from spontaneous fluctuations in systolic blood pressure and pulse interval using the sequence technique. Specifically, baroreflex sensitivity was calculated as the average slope of sequences of 4 or more consecutive blood pressure pulses where the change in blood pressure and pulse interval are positively correlated (r^2>0.85).
Cardiac sympathetic tone and parasympathetic tone were calculated from heart rate responses to the β-adrenergic receptor blocker propranolol and the muscarinic cholinergic receptor blocker methylatropine, respectively. Specifically, resting cardiac sympathetic and parasympathetic (vagal) tone was estimated from heart rate responses to propranolol (1 μg/g, IP) and methylatropine (1 μg/g, IP), respectively. Vasomotor sympathetic tone was calculated from the decrease in mean arterial blood pressure in response to injection of the ganglionic blocker chlorisondamine (12 μg/g, IP).
as §2, §4

[7] = system: Sgcd −/− mice; test: Masson Trichrome stain of skeletal muscle (quadriceps) for fibrosis, Example 2
Description: as §2, §3, §4

[8] = system: Sgcd −/− mice; test: Radio-telemetry of blood pressure, heart rate and locomotor activity in Sgcd −/− mice
Text: In this Example, Sgcd −/− mice, a known model of limb-girdle muscular dystrophy, were used to assess the effects of angiotensin (1-7) peptides on skeletal muscle fibrosis, blood pressure, heart rate, cardiac activity, baroreflex sensitivity, oxidative stress, AT1R receptor expression, and resting cardiac and vagal sympathetic tone. Sgcd −/− mice are missing a key component of the sarcoglycan complex, specifically, they are missing a link between the F-actin cytoskeleton and the extracellular matrix. This defect causes muscle wasting and weakness due to a reduction in muscle fiber integrity and dysregulation in cell signaling in muscle cells. It has been previously shown that this defect results in a reduction of locomotor activity and autonomic dysfunction at a young age. The autonomic dysfunction is thought to lead to cardiac dysfunction later in life.
as §5
Osmotic minipumps (Alzet) were implanted with either Ang (1-7) (also referred to as “TXA127”) or vehicle in mice pups at 3 weeks of age, under ketamine-xylazine anesthesia.
as §2, §4

## Asp^1-Arg^2-Val^3-Ser^4-Ile^5-His^6-Cys^7 [PanCyte] (DRVSIHC; bridge 4-7; also: cross link type between Ser4 and Cys7 not given here) [cyclic angiotensin (1-7) peptide analog]
[1]
  fibrosis in skeletal muscle (quadriceps): no reduction in fibrosis was observed

## Asp^1-Arg^2-Val^3-Ser^4-Ile^5-His^6-Cys^7 [TXA301] (DRVSIHC; bridge 4-7; also: cross link type between Ser4 and Cys7 not given here) [linear angiotensin (1-7) peptide]
[1]
  fibrosis in skeletal muscle (quadriceps): some improvement
[2]
  amount of voluntary exercise performed (average running-wheel revolutions, weeks 6, 7 and 8): significant improvement
  amount of exercise performed (accumulated totals over the three week test period): significant increases

## Asp^1-Arg^2-Val^3-Tyr^4-Ile^5-His^6-Pro^7 [Ang (1-7)]
[1]
  fibrosis in skeletal muscle (quadriceps): significantly reduced fibrosis
[3]
  oxidative stress (DHE fluorescence intensity): significantly attenuated
[4]
  levels of superoxide (DHE fluorescence): strongly attenuated
[5]
  AT1R receptor expression: essentially abrogates the increase in AT1R
[2]; TXA127 500 μg/kg/day, accumulated totals weeks 6-8, FIG. 9
  fold improvement in exercise compared to saline control animals: more than six fold improvement
[2]
  amount of voluntary exercise performed (average running-wheel revolutions, weeks 6, 7 and 8): significant improvement
  amount of exercise performed (accumulated totals over the three week test period): significant increases
[6]; FIG. 4A
  baroreflex sensitivity (decrease in Sgcd −/− mice): essentially abrogated
[6]; blood pressure response to chlorisondamine, FIG. 4D
  vasomotor sympathetic tone (increase in Sgcd −/− mice): essentially abrogated
[6]; heart rate response to methylatropine, FIG. 4B
  cardiac vagal tone (decrease in Sgcd −/− mice): essentially abrogated
[6]; heart rate response to propranolol, FIG. 4C
  cardiac sympathetic tone (increase in Sgcd −/− mice): essentially abrogated
[7]; Sgcd −/− mice, Ang-(1-7) 300 ng/kg/min for 8 weeks, vs untreated Sgcd −/−, FIG. 5
  fibrosis of skeletal muscle (quadriceps): markedly reduced
[7]; treated Sgcd −/− mice vs control C57BL6 mice, FIG. 5B
  levels of fibrosis compared with control C57BL6 mice: comparable to control C57BL6 mice
[8]; Sgcd −/− mice, Ang-(1-7) 300 ng/kg/min by osmotic minipump for 8 weeks from 3 weeks of age, vs untreated Sgcd −/−, FIG. 2A
  mean arterial blood pressure: not significantly affected
[8]; Sgcd −/− mice, Ang-(1-7) 300 ng/kg/min for 8 weeks, vs untreated Sgcd −/− controls, FIG. 2B
  24 hour average heart rate: mildly decrease
[8]; Sgcd −/− mice, Ang-(1-7) 300 ng/kg/min for 8 weeks, vs untreated Sgcd −/−, FIG. 3
  24 hour average locomotor activity: reduction in locomotor activity was drastically reduced
[8]; treated Sgcd −/− mice vs Control C57BL6 mice, FIG. 3
  levels of locomotion compared with Control C57BL6 mice: did not vary significantly
